{"source": "PubChem BioAssay (NCI)", "test_system": "P388 leukemia", "assay": "NCI tumour cell line growth inhibition, 48 h", "note": "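Protocol summary: plate cells (96-well), add compound at 5 concentrations, incubate 48 h, interpolate endpoints linearly. TGI denotes the concentration required for complete inhibition of growth.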"}
{"smiles": "CC1=C(C(=O)Nc2ccc(Cl)c(C(=O)OC(C)C)c2)SCCO1", "values": [{"measurement": "TGI", "value": 54.2, "unit": "µM"}]}
